Data taken from patent US20040106135A1, “Assay for PPAR ligand dependent gene modulation” (priority 2002, published 2004).

What was measured:
[1] = system: hamster PDK-4 mRNA in kidney; assay: PDK-4 mRNA induction in kidney of fat-fed hamsters; format: in vivo; details: single dose (GW9578 3 mg/kg, fenofibrate 100 mg/kg, gemfibrozil 500 mg/kg), 16 hours
Experimental: (§1) FIG. 4B is a bar graphs depicting the induction of PDK-4 mRNA in hamster kidney by PPARα ligands. […] After 16 hours, the tissues were harvested, total RNA isolated and levels of hamster PDK-4 mRNA were detected by RT-PCR. The values are normalized to 18S rRNA levels. The mean and SEM of three individual animals are shown.
(§2) PDK-4 plays a critical role in regulating glucose metabolism by phosphorylating and inactivating the pyruvate dehydrogenase complex in response to increased fatty acid oxidation. […] To investigate the response of PDK-4 to fibrate treatment in vivo, in another aspect of the present invention the fat-fed hamster model was employed, which closely mimics the serum lipid profiles of humans than other rodent models (Sullivan et al., (1993) Lab. Anim. Sci. 43:575-578). […] These doses were previously shown to yield maximal effects on blood triglycerides in hamster. […] In hamster kidney, the basal levels of PDK-4 mRNA were approximately 10-fold higher than in the liver (FIG. 4B). […] Fibrates are effective treatments for lowering serum triglyceride levels. To verify that the doses used in this study were efficacious, blood triglyceride levels were monitored over a 48 hour time course.
(§3) Real-time PCR: Fluorescence-based real-time PCR was performed essentially as described (Abbaszade et al., (1999) J. Biol. Chem. 274:23443-23450). […] Taqman-based real-time PCR expression profiling was performed using 25 ng of each cDNA according to the manufacturer's (PE Biosystems) instructions with fluorescence being monitored in real-time with an ABI Prism 7700 (PE Biosystems). Relative expression levels were determined essentially as described (Gibson et al., (1996) Genome Res. 6:995-1001) using standard curves for each transcript. Relative abundance was then determined from these standard curves, subtracting mRNA levels obtained from negative control reactions performed in the absence of reverse transcriptase, and normalized to 18S rRNA levels. […]

[2] = Serum triglyceride levels in fat-fed hamsters; format: in vivo, hamster; details: for Serum triglyceride levels, 48 h / Serum triglyceride levels, 8 h / Serum triglyceride levels, 16 h: single dose, mean +/- SEM, 3 animals; for Serum triglyceride levels, 48 h: control 208.67; for Serum triglyceride levels, 8 h: control 261.33; for Serum triglyceride levels, 16 h: control 308.00
Experimental: Blood was sampled at 8, 16 and 48 hours following a single drug treatment for total triglyceride analysis. The mean levels (+/−SEM) for 3 animals per group are shown. The “*” indicates a statistically significant difference with respect to control (p<0.01) by Student's t-test. Animal studies: All procedures performed in this study were approved by the Animal Care and Use committee, and conform to the guide for the Care and Use of Laboratory Animals Act. Male Syrian Golden hamsters (Charles River, Wilmington Mass.) weighing 120-140 g, were used in the study. Animals were kept on a 12-hour light/dark cycle and allowed free access to normal chow and water. The animals were divided into groups according to weight, and fed either an high fat diet (0.5% cholesterol, 5% coconut oil) (N=3) or normal chow diet (N=3). […] At intervals of 0, 8, 16 and 48 hr animals were anesthetized with CO2. Blood was collected by cardiac puncture into EDTA containing tubes; plasma was isolated for immediate analysis of triglycerides by the Dade Clinical Analyser®. Animals were then euthanized with CO2. The liver and kidneys were collected, flash frozen in liquid nitrogen and stored at −80° C. for future gene expression analysis.

[3] = system: hamster PDK-4 mRNA in liver; assay: PDK-4 mRNA induction in liver of fat-fed hamsters; format: in vivo; details: single dose (GW9578 3 mg/kg, fenofibrate 100 mg/kg, gemfibrozil 500 mg/kg), 16 hour post-treatment
Experimental: as §1, with “4A” for “4B”, “graph” for “graphs”, “liver” for “kidney”
as §2, §3

GAL4-hPPARα = target: T1, GAL4-hPPARα (Homo sapiens, UniProt Q07869); assay: Transactivation assay, GAL4-hPPARα chimera with luciferase reporter; format: cell-based; details: HEK293 cell line with GAL4 UAS-Luciferase reporter; read-out: EC50 (μM) in Transactivation Assay (GAL4-hPPARα), Present Disclosure
T1 construct: other: HEK293 cell line with GAL4 UAS-Luciferase
T1 sequence (Q07869 200-468 limits assumed): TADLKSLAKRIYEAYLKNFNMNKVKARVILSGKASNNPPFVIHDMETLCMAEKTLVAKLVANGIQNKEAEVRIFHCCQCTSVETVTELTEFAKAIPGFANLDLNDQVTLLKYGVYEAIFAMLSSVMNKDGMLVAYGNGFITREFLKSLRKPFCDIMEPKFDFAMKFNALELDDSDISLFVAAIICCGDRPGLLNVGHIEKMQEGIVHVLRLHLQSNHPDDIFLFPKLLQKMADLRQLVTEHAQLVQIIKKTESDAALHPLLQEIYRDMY
Experimental: (§4) EC50 values were determined for PDK-4 mRNA induction by quantitative PCR under conditions used to generate the data shown in FIG. 2. EC50 values in the transactivation assays were determined by transfection of an expression plasmid encoding a GAL4-hPPARα chimera into cells co-expressing a luciferase reporter gene under the transcriptional control of GAL4 upstream activating elements.
Transcriptional activation assay: Cell based transcriptional activation assays using a GAL4-hPPARa expression plasmid and an HEK293 cell line stably integrated with a GAL4 UAS-Luciferase reporter gene was performed exactly as described previously (Mukherjee et al., (2002) J. Steroid Biochem. Mol. Biol. 1712:1-9).

[4] = system: PDK-4 mRNA in HK-2 cells (endogenous PPARα); assay: PDK-4 mRNA induction in HK-2 cells (real-time RT-PCR); format: cell-based, human; details: 24 hours; for EC50: Homo sapiens, HK-2, PDK-4 mRNA induction by quantitative PCR, normalized to 18S rRNA, read-out: EC50 (μM) in HK-2 (PDK-4)
Experimental: (§5) Values were normalized to 18S rRNA levels.
as §4
(§6) Cell culture: The following cell lines were obtained from American Type Culture Collection (ATCC) and cultured in the recommended medium for each cell type: HepG2, HK-2, Caki-1, LNCaP (CloneFGC), SW872, and ACHN. PPARα compounds were prepared to a 500× stock in DMSO; corresponding control cells received an equal volume of vehicle (0.2% v/v).
Real-time PCR: Fluorescence-based real-time PCR was performed essentially as described (Abbaszade et al., (1999) J. Biol. Chem. 274:23443-23450). Primers and probes designed from the hamster pyruvate dehydrogenase kinase 4 (PDK4) sequence (Genbank Accession No. AF321218), human pyruvate dehydrogenase kinase 4 (PDK-4) sequence (Genbank Accession No. NM_002612) and human adipose differentiation-related protein (ADFP) sequence (Genbank Accession No. NM_001122) were synthesized and purified by Biosearch Technologies. Probes for ADFP and PDK-4 were modified at the 5′ end with the reporter dye 6-FAM, and at the 3′ end with the quencher dye Black Hole Quencher 1 (Biosearch Technologies). Probes detecting rat 18S rRNA were modified at the 5′ end with VIC and at the 3′ end with TAMRA (Biosearch Technologies). For detection of hamster PDK4, primers 5′-[…] (SEQ ID NO:2), 5′[…] (SEQ ID NO:3), and probe 5′-[…] (SEQ ID NO:4) were used. For detection of human PDK4, primers 5′-[…] (SEQ ID NO:5), 5′-[…] (SEQ ID NO:6), and probe 5′-[…] (SEQ ID NO:7) were used. For detection of human ADFP, primers 5′-[…] (SEQ ID NO:8), 5′-[…] (SEQ ID NO:9), and probe 5′-[…] (SEQ ID NO: 10) were used. For detection of 18s rRNA, primers 5′-[…] (SEQ ID NO:11), 5′-[…] (SEQ ID NO:12), and probe 5′-[…] (SEQ ID NO:13) were used. Template cDNA was generated using the Advantage RT-PCR kit according to the manufacturer's (Clontech) instructions using random hexamers and 1 μg of DNaseI-treated total RNA. Taqman-based real-time PCR expression profiling was performed using 25 ng of each cDNA according to the manufacturer's (PE Biosystems) instructions with fluorescence being monitored in real-time with an ABI Prism 7700 (PE Biosystems). Relative expression levels were determined essentially as described (Gibson et al., (1996) Genome Res. 6:995-1001) using standard curves for each transcript. Relative abundance was then determined from these standard curves, subtracting mRNA levels obtained from negative control reactions performed in the absence of reverse transcriptase, and normalized to 18S rRNA levels. All expression measurements were performed in duplicate in two independent assays, generating a total of four measurements per cDNA.

PDK-4 [5] = details: Way et al. (2001); cited from earlier work
[6] = system: PDK4 mRNA in HEK293 cells; assay: PDK4 mRNA induction in HEK293 cells by PPAR modulators (Taqman PCR); format: cell-based, human; details: 4 hours; 100 micromolar fenofibric acid, 10 micromolar rosiglitazone, 10 micromolar GW501516; relative to CYCD1 mRNA
Experimental: HEK293 cells were treated for 4 hours with the following PPAR modulators:
100 micromolar fenofibric acid (a PPARα selective modulator), 10 micromolar rosiglitazone (a PPARγ selective modulator) and 10 micromolar GW501516 (a PPARβ(δ) selective modulator; Oliver et al., (2001) Proc. Natl. Acad. Sci. U.S.A. 98:5306-11). PDK4 mRNA was measured by Taqman PCR analysis. The PDK4 expression levels are expressed relative to CYCD1 mRNA used as a normalization control.

[7] = system: ADRP mRNA in HK-2 cells (endogenous PPARα); assay: ADRP mRNA induction in HK-2 cells (real-time RT-PCR); format: cell-based, human; details: highest dose tested 300 μM
Experimental: as §5, §6, §3

hamster PPARα = assay: Hamster PPARα transactivation assay; format: cell-based
PDK-4 [8] = details: Wu et al. (1999); abrogated in PPARα-/- mice; cited from earlier work

| SMILES | Induction of PDK-4 mRNA in kidney [1] | Serum triglyceride levels, 48 h [2] | Serum triglyceride levels, 8 h [2] | Serum triglyceride levels, 16 h [2] | Induction of PDK-4 mRNA levels in the liver [3] | EC50 (GAL4-hPPARα) | EC50 [4] | further results |
| --- | --- | --- | --- | --- | --- | --- | --- | --- |
| CC(C)OC(=O)C(C)(C)Oc1ccc(C(=O)c2ccc(Cl)cc2)cc1 [Fenofibrate, fenofibrate] | 11 fold | 146.33 + 17.15 | 229.00 + 38.52 | 231.67 + 63.22 | 14 fold | – | – | – |
| CC(C)(Oc1ccc(C(=O)c2ccc(Cl)cc2)cc1)C(=O)O [Fenofibric Acid, fenofibric acid] | – | – | – | – | – | 80 µM | 10 µM | – |
| CN(CCOc1ccc(C[C@H](Nc2ccccc2C(=O)c2ccccc2)C(=O)O)cc1)c1ccccn1 [GW1929] | – | – | – | – | – | – | – | PDK-4 levels in the skeletal muscle of rats (PDK-4 [5]): decrease PDK-4 levels |
| Cc1cc(SCc2sc(-c3ccc(C(F)(F)F)cc3)nc2C)ccc1OCC(=O)O [GW501516] | – | – | – | – | – | – | – | PDK4 mRNA induction in HEK293 cells [6]: induced |
| Cc1ccc(C)c(OCCCC(C)(C)C(=O)O)c1 [Gemfibrozil] | no effect | 206.33 + 65.30 | 334.33 + 82.42 | 325.67 + 46.77 | least effect | 60 µM | 27 µM | Saturation of ADRP induction [7]: did not appear to saturate; Change of triglyceride levels compared with the control group ([2]; single dose, 8, 16 and 48 hours): neither gemfibrozil nor fenofibrate altered triglyceride levels to a statistically significant degree; Activity in hamster PPARα transactivation assay (hamster PPARα): lowest activity; Efficacy of PDK-4 induction compared with GW9578 ([4]; HK-2 cells, maximal induction by GW9578 = 100%): lower efficacy than GW9578 |
| Cc1cccc(Nc2cc(Cl)nc(SCC(=O)O)n2)c1C [WY-14, 643] | – | – | – | – | – | – | – | PDK-4 induction in rodent tissues in vivo (PDK-4 [8]): PDK-4 induction was observed |
